US12491203B2, “Use of mannose 6 phosphate and modifications thereof for memory enhancement and reducing memory impairment” (New York University, priority 2018, dated 2025)
“Also recorded” adds a separate entry of the source.

What was measured:
[1] = test system: normal (wild type, WT) mice; test: novel object recognition (nOR) paradigm in normal (wild type) mice; assay type: in vivo, mouse
Method: FIG. 1. Dose-response curve of the effect of M6P, also called IGF2R.L1 (L1) on nOR in normal (wild type, WT) mice. Experimental timeline is shown above graphs. Data are expressed as the mean±s.e.m. N=4 per group. One-way analysis of variance (ANOVA) followed by Bonferroni post-hoc tests. *P<0.05, **P<0.01. WT mice were injected s.c. with vehicle solution or different doses of IGF2R.L1 (L1) 20 min prior to training on nOR. Graphs show percent exploration preference for the novel object compared to the familiar object at testing performed at 4 h and 24 h after training.
(§1) FIG. 2. M6P reverses object recognition memory deficits in a mouse model of Angelman syndrome and enhances memory in WT mice. Experimental timelines are shown above graphs. In all experiments mice received a s.c. injection of vehicle or M6P (↑) 20 min before nOR training or testing. Percent exploration preference for a novel object compared to a familiar object during novel object recognition of WT (Control) and Ube3a−/+(AS) mice injected with vehicle or M6P (labeled as IGF-2R.L1), 20 min before training, tested at 4 h and 24 h after training. N=4/group. All data are expressed as the mean (±s.e.m.). Two-way analysis of variance (ANOVA) followed by Tukey post-hoc tests. *P<0.05, **P<0.01, ***P<0.001.
FIG. 4. An M6P derivative, phosphonate M6P (PnM6P), enhances memory in mice. Experimental timeline is shown above graphs. Mice received a s.c. injection of either vehicle or 850 μg/Kg of phosphonate-M6P (PnM6P) called IGF-2R.L2 (or L2) (↑) 20 min before training. (A) Percent exploration preference for a novel object compared to a familiar object during the nOR paradigm of mice injected with vehicle or L2 20 min before training, and tested at 24 h (Test 1), 5 days (Test 2) and 14 days (Test 3) after training. N=8-10/group. Data are expressed as the % mean±s.e.m. (B). Total time spent exploring both objects during the nOR training session of mice injected with vehicle or L2 20 min before training. N=4 per group. […] Data are expressed in seconds (s). Two-way analysis of variance (ANOVA) followed by Bonferroni post-hoc tests. *P<0.05, **P<0.01, ***P<0.001.
FIG. 5. Comparing M6P (L1) and PnM6P (L2) effects on memory retention: both L1 and L2 similarly enhance nOR in mice. Experimental timeline is shown above graphs. Mice received a s.c. injection of either vehicle or 850 μg/Kg of phosphonate-M6P (PnM6P) called IGF-2R.L2 (or L2) or 850 μg/Kg of M6P (IGF-2R.L1 or L1) (↑) 20 min before training. (A) Percent exploration preference for a novel object compared to a familiar object during the nOR paradigm of mice injected with vehicle, L2 or L1 20 min before training, and tested at 24 h (Test 1), 5 days (Test 2) and 14 days (Test 3) after training. N=4-10/group. Data are expressed as the % mean±s.e.m. (B). Total time spent exploring both objects during the nOR training session of mice injected with vehicle, L2 or L1 20 min before training. N=2-4 per group. […] Data are expressed in seconds (s). Two-way analysis of variance (ANOVA) followed by Bonferroni post-hoc tests. *P<0.05, **P<0.01, ***P<0.001.
FIG. 6. PnM6P (L2) reverses object recognition memory deficits in a mouse model of Angelman syndrome. Experimental timeline is shown above graphs. Mice received a s.c. injection of either vehicle or 850 μg/Kg of phosphonate-M6P (PnM6P) called IGF-2R.L2 (or L2) (↑) 20 min before either training or testing. (A) Percent exploration preference for a novel object compared to a familiar object during the nOR paradigm of wild type (WT served as Control mice) and Ube3a−/+(AS) mice injected with vehicle or L2 before training, and tested at 4 h, 24 h and 5 days (5d) after training. N=4/group. Data are expressed as the % mean±s.e.m. (B). Total time spent exploring the 2 objects during the nOR training session of WT and AS mice injected with vehicle or L2 20 min before training. N=4/per group. […] Data are expressed in seconds (s). […]

Ube3a-/+ (AS) mice = test: novel object recognition (nOR) paradigm in mouse model of Angelman syndrome; assay type: in vivo
Method: as §1
FIG. 6. PnM6P (L2) reverses object recognition memory deficits in a mouse model of Angelman syndrome. Experimental timeline is shown above graphs. Mice received a s.c. injection of either vehicle or 850 μg/Kg of phosphonate-M6P (PnM6P) called IGF-2R.L2 (or L2) (↑) 20 min before either training or testing. (A) Percent exploration preference for a novel object compared to a familiar object during the nOR paradigm of wild type (WT served as Control mice) and Ube3a−/+(AS) mice injected with vehicle or L2 before training, and tested at 4 h, 24 h and 5 days (5d) after training. N=4/group. Data are expressed as the % mean±s.e.m. (B). Total time spent exploring the 2 objects during the nOR training session of WT and AS mice injected with vehicle or L2 20 min before training. N=4/per group. […] Data are expressed in seconds (s). Two-way analysis of variance (ANOVA) followed by Bonferroni post-hoc tests. *P<0.05, **P<0.01, ***P<0.001.
Specifically, we used the novel object recognition (nOR) paradigm in mice to assess non-aversive episodic memory. In this task, the innate preference for novelty of the rodent is used. During training, the mouse is allowed to explore 2 identical objects. On test day, one of the training objects is replaced with a novel object. Because mice have an innate preference for novelty, if the mouse recognizes the familiar object, it will spend more time at the novel object.

adult rats = test: inhibitory avoidance (IA) contextual fear memory task, intra-hippocampal injection; assay type: in vivo, rat; conditions: for avoidance memory (latency) vs vehicle: bilateral intra-hippocampal injection immediately after training
Method: FIG. 3. M6P injected into the hippocampus of rats enhances memory: dose-response curve. Experimental timeline is shown above graph. Rats received a bilateral intra-hippocampal injection of vehicle or different doses of IGF-2R.L1 (M6P) (↑) immediately after training in the contextual fear memory task inhibitory avoidance (IA). Memory retention was then tested at 24 hours (T1) and 7 days (T2) after training. Testing measured the latency to enter the compartment in which the animals received a foot shock during training. N=12/group. All data are expressed as the mean (±s.e.m.). Two-way repeated measures analysis of variance (ANOVA) followed by Bonferroni post-hoc tests. *P<0.05, **P<0.01, ***P<0.001. […] In these experiments, adult rats were trained in the inhibitory avoidance (IA) paradigm. In this paradigm the animals learn to avoid a chamber paired with a foot-shock.

[2] = WT mice, 850 μg/Kg s.c. 20 min before training, tested 14 days after training

Row | SMILES | nOR memory (exploration preference for novel object) vs vehicle ([1]; WT control mice, s.c. injection 20 min before training, tested 4 h after training (FIG. 2)) | nOR memory retention vs vehicle ([1]; WT control mice, s.c. injection 20 min before training, tested 24 h after training (FIG. 2)) | nOR memory retention vs vehicle [1, 2] | nOR memory deficit reversal (Ube3a-/+ (AS) mice; s.c. injection 20 min before training, tested 4 h after training (FIG. 2)) | nOR memory retention vs vehicle (Ube3a-/+ (AS) mice; s.c. injection 20 min before training, tested 24 h after training (FIG. 2)) | avoidance memory (latency) vs vehicle (adult rats; retested 6 days later (7 days after training, T2)) | avoidance memory (latency) vs vehicle (adult rats; tested 1 day (24 h, T1) after training) | dose dependence of memory-enhancing effect (adult rats; bilateral intra-hippocampal injection, different doses) | nOR memory vs vehicle ([1]; WT mice, 850 μg/Kg s.c. 20 min before training, tested 4 h after training (FIG. 6)) | nOR memory retention vs vehicle ([1]; WT mice, 850 μg/Kg s.c. 20 min before training, tested 24 h after training) | nOR memory retention vs vehicle ([1]; WT mice, 850 μg/Kg s.c. 20 min before training, tested 5 days after training) | nOR memory deficit reversal (Ube3a-/+ (AS) mice; 850 μg/Kg s.c. 20 min before training, tested 4 h after training (FIG. 6)) | nOR memory vs vehicle (Ube3a-/+ (AS) mice; 850 μg/Kg s.c. 20 min before training, tested 24 h after training (FIG. 6))
1 | O=C[C@@H](O)[C@@H](O)[C@H](O)[C@H](O)COP(=O)(O)O [L1, mannose-6-phosphate] | significant memory enhancement | significantly increased memory retention in both groups | returned to baseline | reversed memory deficits in AS mice | significantly increased memory retention in both groups | effect persisted | significant increase in avoidance memory | dose dependent | – | – | – | – | –
2 | COC1OC(CCP(=O)(OCOC(=O)OC(C)C)OCOC(=O)OC(C)C)C(O)C(O)C1O [L2, Methyl 6-Deoxy-6-diisopropyloxycarbonyloxy-methyl-phosphinylmethyl-α-D-mannopyranoside] | – | – | memory enhancement was no longer seen; also recorded: returned to baseline | – | – | – | – | – | enhanced memory | significantly increased memory retention at both timepoints; also recorded: significant memory in both groups | significantly increased memory retention at both timepoints | reversed memory deficits in AS mice | significant memory in both groups
